Experimental data: ChEMBL document CHEMBL1949541, “Discovery of 7-arylsulfonyl-1,2,3,4, 4a,9a-hexahydro-benzo[4,5]furo[2,3-c]pyridines: identification of a potent and selective 5-HT₆ receptor antagonist showing activity in rat social recognition test” (Bioorg Med Chem Lett, 2012)

What was measured:
[1] = molecular target: T1, 5-hydroxytryptamine receptor 6 (Homo sapiens, UniProt P50406); experiment: Antagonist activity at human 5HT6 receptor expressed in human astrocytoma cells assessed as inhibition of cAMP production; format: functional, cell-based
[2] = molecular target: 5-hydroxytryptamine receptor 6 (Rattus norvegicus, UniProt P31388); experiment: Displacement of [3H]LSD from rat recombinant 5HT6 receptor
[3] = molecular target: T1, 5-hydroxytryptamine receptor 6; experiment: Displacement of [3H]LSD from human recombinant 5HT6 receptor

Sequence of 5-hydroxytryptamine receptor 6 (Rattus norvegicus, UniProt P31388) (P31388 whole entry): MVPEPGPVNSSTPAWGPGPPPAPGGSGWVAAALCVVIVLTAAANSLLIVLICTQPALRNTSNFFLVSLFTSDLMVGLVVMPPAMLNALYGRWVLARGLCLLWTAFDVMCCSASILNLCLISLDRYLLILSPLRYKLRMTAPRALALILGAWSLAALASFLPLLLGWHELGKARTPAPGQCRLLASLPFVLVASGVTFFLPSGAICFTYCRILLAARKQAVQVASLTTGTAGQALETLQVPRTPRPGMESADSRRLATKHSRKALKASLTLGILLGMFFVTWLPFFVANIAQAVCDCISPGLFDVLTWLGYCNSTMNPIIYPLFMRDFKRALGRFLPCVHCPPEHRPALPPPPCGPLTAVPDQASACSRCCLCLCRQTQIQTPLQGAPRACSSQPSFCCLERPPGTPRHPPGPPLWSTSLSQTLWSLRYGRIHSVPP
T1 sequence (P50406 whole entry): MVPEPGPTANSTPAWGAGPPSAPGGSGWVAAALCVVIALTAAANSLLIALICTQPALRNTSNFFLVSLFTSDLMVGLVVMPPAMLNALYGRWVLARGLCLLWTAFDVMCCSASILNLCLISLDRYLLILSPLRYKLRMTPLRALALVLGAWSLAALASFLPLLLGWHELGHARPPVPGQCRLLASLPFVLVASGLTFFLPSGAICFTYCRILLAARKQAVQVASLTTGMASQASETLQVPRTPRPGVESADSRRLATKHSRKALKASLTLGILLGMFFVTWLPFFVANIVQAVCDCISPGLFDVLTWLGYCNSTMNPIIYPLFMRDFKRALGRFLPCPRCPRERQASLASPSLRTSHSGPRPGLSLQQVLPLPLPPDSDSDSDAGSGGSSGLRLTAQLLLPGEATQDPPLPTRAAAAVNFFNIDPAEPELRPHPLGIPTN

| Compound | IC50 [1] | Ki [2] | Ki [3] |
| --- | --- | --- | --- |
| Cc1cccc(S(=O)(=O)c2ccc3c(c2)O[C@H]2CNCC[C@@H]32)c1 (racemic) | 0.227 µM | 0.243 µM | 0.037 µM |
| COCCCOc1cccc(S(=O)(=O)c2ccc3c(c2)O[C@H]2CNCC[C@@H]32)c1 (racemic) | – | – | 0.203 µM |
| O=S(=O)(c1cccc(F)c1)c1ccc2c(c1)O[C@H]1CNCC[C@@H]21 (racemic) | 0.033 µM | 0.052 µM | 0.021 µM |
| CC(C)Oc1cccc(S(=O)(=O)c2ccc3c(c2)O[C@H]2CNCC[C@@H]32)c1F (single isomer, unassigned; enantiomer 2) | – | – | 0.021 µM |
| CC(C)Oc1cccc(S(=O)(=O)c2ccc3c(c2)O[C@H]2CNCC[C@@H]32)c1 (racemic) | 0.306 µM | 0.156 µM | 0.023 µM |
| O=S(=O)(c1cc(F)cc(F)c1)c1ccc2c(c1)O[C@H]1CNCC[C@@H]21 (single isomer, unassigned; enantiomer 1) | 1.36 µM | 2.18 µM | 0.166 µM |
| O=S(=O)(c1ccc2c(c1)O[C@H]1CNCC[C@@H]21)c1cccc(Cl)c1Cl (single isomer, unassigned; enantiomer 1) | 0.04 µM | – | 0.005 µM |
| COc1cccc(S(=O)(=O)c2ccc3c(c2)O[C@H]2CNCC[C@@H]32)c1 (racemic) | 0.281 µM | – | 0.085 µM |
| COCCOc1cccc(S(=O)(=O)c2ccc3c(c2)O[C@H]2CNCC[C@@H]32)c1 (racemic) | – | – | 0.562 µM |
| O=S(=O)(c1cccc(Cl)c1)c1ccc2c(c1)O[C@H]1CNCC[C@@H]21 (racemic) | 0.027 µM | 0.04 µM | 0.011 µM |
| O=S(=O)(c1cccc(C(F)(F)F)c1)c1ccc2c(c1)O[C@H]1CNCC[C@@H]21 (racemic) | 0.357 µM | – | 0.048 µM |
| CC(C)Oc1cccc(S(=O)(=O)c2ccc3c(c2)O[C@H]2CNCC[C@@H]32)c1F (single isomer, unassigned; enantiomer 1) | – | – | 0.056 µM |
| Cc1ccc(S(=O)(=O)c2ccc3c(c2)O[C@H]2CNCC[C@@H]32)cc1 (racemic) | 0.245 µM | 0.236 µM | 0.064 µM |
| O=S(=O)(c1cc(F)cc(Cl)c1)c1ccc2c(c1)O[C@H]1CNCC[C@@H]21 (single isomer, unassigned; enantiomer 1) | 0.79 µM | – | 0.068 µM |
| CC(C)Oc1cc(F)cc(S(=O)(=O)c2ccc3c(c2)O[C@H]2CNCC[C@@H]32)c1 (single isomer, unassigned; enantiomer 1) | – | – | 0.049 µM |
| CC(C)Oc1cc(F)cc(S(=O)(=O)c2ccc3c(c2)O[C@H]2CNCC[C@@H]32)c1 (single isomer, unassigned; enantiomer 2) | – | – | 0.065 µM |
| O=S(=O)(c1ccc2c(c1)O[C@H]1CNCC[C@@H]21)c1ccccc1Cl (racemic) | 0.133 µM | 0.206 µM | 0.038 µM |
| O=S(=O)(c1ccc2c(c1)O[C@H]1CNCC[C@@H]21)c1ccccc1F (racemic) | 0.179 µM | 0.145 µM | 0.032 µM |
| O=S(=O)(c1ccc2c(c1)O[C@H]1CNCC[C@@H]21)c1ccccc1-c1ccccc1 (racemic) | 0.135 µM | 0.136 µM | 0.015 µM |
| O=S(=O)(c1ccc2c(c1)O[C@H]1CNCC[C@@H]21)c1cccc(Cl)c1Cl (single isomer, unassigned; enantiomer 2) | 0.006 µM | – | 0.002 µM |
| O=S(=O)(c1cc(F)cc(F)c1)c1ccc2c(c1)O[C@H]1CNCC[C@@H]21 (single isomer, unassigned; enantiomer 2) | 0.096 µM | 0.174 µM | 0.028 µM |
| O=S(=O)(c1cc(F)cc(Cl)c1)c1ccc2c(c1)O[C@H]1CNCC[C@@H]21 (single isomer, unassigned; enantiomer 2) | 0.063 µM | – | 0.011 µM |
| O=S(=O)(c1ccc(F)cc1)c1ccc2c(c1)O[C@H]1CNCC[C@@H]21 (racemic) | – | – | 0.385 µM |
